Test results from ChEMBL document CHEMBL1140580, “Synthesis and characterization of trans-4-(4-chlorophenyl)pyrrolidine-3-carboxamides of piperazinecyclohexanes as ligands for the melanocortin-4 receptor” (Bioorg Med Chem Lett, 2007).

What was measured:
Melanocortin receptor 4 [1] = target: T1, Melanocortin receptor 4 (Homo sapiens, UniProt P32245); assay: Displacement of […]NDPMSH from human MC4R expressed in HEK293 cells; type: cell-based
Melanocortin receptor 4 [2] = target: T1, Melanocortin receptor 4; assay: Agonist activity at MC4R assessed as stimulation of cAMP release relative to alphaMSH; type: functional
Melanocortin receptor 4 [3] = target: T1, Melanocortin receptor 4; assay: Agonist activity at MC4R assessed as stimulation of cAMP release; type: functional

T1 sequence (P32245 whole entry): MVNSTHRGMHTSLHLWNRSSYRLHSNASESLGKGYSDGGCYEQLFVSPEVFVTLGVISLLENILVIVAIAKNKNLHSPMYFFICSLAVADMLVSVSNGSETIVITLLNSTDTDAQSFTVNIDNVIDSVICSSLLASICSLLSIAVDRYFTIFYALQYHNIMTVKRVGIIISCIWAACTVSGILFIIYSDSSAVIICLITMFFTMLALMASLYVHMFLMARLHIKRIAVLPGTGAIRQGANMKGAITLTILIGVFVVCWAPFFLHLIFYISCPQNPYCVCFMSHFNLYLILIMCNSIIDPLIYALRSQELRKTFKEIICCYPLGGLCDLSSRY

## CC(C)Oc1ccc(CNCC2(N3CCN(C(=O)[C@H]4CN(C(C)C)C[C@@H]4c4ccc(Cl)cc4)CC3)CCCCC2)cc1
Melanocortin receptor 4 [1]
  Ki: 2.1 nM
Melanocortin receptor 4 [2]
  Intrinsic activity: 6%

## Cc1c(CNCC2(N3CCN(C(=O)[C@H]4CN(C(C)C)C[C@@H]4c4ccc(Cl)cc4)CC3)CCCCC2)cnn1C
Melanocortin receptor 4 [3]
  EC50: 50 nM
Melanocortin receptor 4 [1]
  Ki: 11 nM
Melanocortin receptor 4 [2]
  Intrinsic activity: 43%

## COc1ccc(CNCC2(N3CCN(C(=O)[C@H]4CN(C(C)C)C[C@@H]4c4ccc(Cl)cc4)CC3)CCCCC2)c(OC)c1
Melanocortin receptor 4 [1]
  Ki: 16 nM
Melanocortin receptor 4 [2]
  Intrinsic activity: 29%

## CCN(Cc1ccc(OC)cc1)CC1(N2CCN(C(=O)[C@H]3CN(C(C)C)C[C@@H]3c3ccc(Cl)cc3)CC2)CCCCC1
Melanocortin receptor 4 [1]
  Ki: 190 nM

## CC(C)N1C[C@H](C(=O)N2CCN(C3(CNCC4CCCCC4)CCCCC3)CC2)[C@@H](c2ccc(Cl)cc2)C1
Melanocortin receptor 4 [1]
  Ki: 300 nM

## COc1ccc(CN(C)CC2(N3CCN(C(=O)[C@H]4CN(C(C)C)C[C@@H]4c4ccc(Cl)cc4)CC3)CCCCC2)cc1
Melanocortin receptor 4 [1]
  Ki: 110 nM

## COc1ccc(CN(CC(C)C)CC2(N3CCN(C(=O)[C@H]4CN(C(C)C)C[C@@H]4c4ccc(Cl)cc4)CC3)CCCCC2)cc1
Melanocortin receptor 4 [1]
  Ki: 1800 nM

## COc1ccc(CN(CC2(N3CCN(C(=O)[C@H]4CN(C(C)C)C[C@@H]4c4ccc(Cl)cc4)CC3)CCCCC2)OC)cc1
Melanocortin receptor 4 [1]
  Ki: 1300 nM

## NCCC(=O)N1C[C@H](C(=O)N2CCN(C3(CNCc4ccccc4)CCCCC3)CC2)[C@@H](c2ccc(Cl)cc2)C1
Melanocortin receptor 4 [1]
  Ki: 110 nM
Melanocortin receptor 4 [2]
  Intrinsic activity: 9%

## CC(C)N1C[C@H](C(=O)N2CCN(C3(CNCc4ccc([N+](=O)[O-])cc4)CCCCC3)CC2)[C@@H](c2ccc(Cl)cc2)C1
Melanocortin receptor 4 [1]
  Ki: 52 nM

## COC(=O)c1ccc(CNCC2(N3CCN(C(=O)[C@H]4CN(C(C)C)C[C@@H]4c4ccc(Cl)cc4)CC3)CCCCC2)cc1
Melanocortin receptor 4 [1]
  Ki: 32 nM
Melanocortin receptor 4 [2]
  Intrinsic activity: 21%

## CCC(=O)N1C[C@H](C(=O)N2CCN(C3(CNCc4ccncc4)CCCCC3)CC2)[C@@H](c2ccc(Cl)cc2)C1
Melanocortin receptor 4 [1]
  Ki: 3100 nM

## COc1ccc(CNCC2(N3CCN(C(=O)[C@H]4CN(C(C)C)C[C@@H]4c4ccc(Cl)cc4)CC3)CCCCC2)cc1
Melanocortin receptor 4 [1]
  Ki: 3.6 nM
Melanocortin receptor 4 [2]
  Intrinsic activity: 17%

## CC(N)C(=O)N1C[C@H](C(=O)N2CCN(C3(CNCc4ccccc4)CCCCC3)CC2)[C@@H](c2ccc(Cl)cc2)C1 (stereo not given in full)
Melanocortin receptor 4 [1]
  Ki: 430 nM
Melanocortin receptor 4 [2]
  Intrinsic activity: 3%

## CC(C)N1C[C@H](C(=O)N2CCN(C3(CNCc4cccc(F)c4)CCCCC3)CC2)[C@@H](c2ccc(Cl)cc2)C1
Melanocortin receptor 4 [1]
  Ki: 24 nM
Melanocortin receptor 4 [2]
  Intrinsic activity: 23%

## CC(C)N1C[C@H](C(=O)N2CCN(C3(CNCCc4ccccn4)CCCCC3)CC2)[C@@H](c2ccc(Cl)cc2)C1
Melanocortin receptor 4 [1]
  Ki: 690 nM

## CC(=O)N1C[C@H](C(=O)N2CCN(C3(CNCc4ccncc4)CCCCC3)CC2)[C@@H](c2ccc(Cl)cc2)C1
Melanocortin receptor 4 [1]
  Ki: 3000 nM

## O=C([C@H]1CNC[C@@H]1c1ccc(Cl)cc1)N1CCN(C2(CNCc3ccncc3)CCCCC2)CC1
Melanocortin receptor 4 [1]
  Ki: 2200 nM

## COCC(C)N1C[C@H](C(=O)N2CCN(C3(CNCc4ccccc4)CCCCC3)CC2)[C@@H](c2ccc(Cl)cc2)C1 (stereo not given in full)
Melanocortin receptor 4 [1]
  Ki: 100 nM
Melanocortin receptor 4 [2]
  Intrinsic activity: 7%

## CCCC(=O)N1C[C@H](C(=O)N2CCN(C3(CNCc4ccccc4)CCCCC3)CC2)[C@@H](c2ccc(Cl)cc2)C1
Melanocortin receptor 4 [1]
  Ki: 190 nM
Melanocortin receptor 4 [2]
  Intrinsic activity: 8%

## CC(C)N1C[C@H](C(=O)N2CCN(C3(CNC(=O)Cc4ccccc4)CCCCC3)CC2)[C@@H](c2ccc(Cl)cc2)C1
Melanocortin receptor 4 [1]
  Ki: 510 nM

## CC(C)N1C[C@H](C(=O)N2CCN(C3(CNCc4ccccc4OC(F)(F)F)CCCCC3)CC2)[C@@H](c2ccc(Cl)cc2)C1
Melanocortin receptor 4 [1]
  Ki: 110 nM

## CC(=O)N(Cc1ccncc1)CC1(N2CCN(C(=O)[C@H]3CN(C(C)C)C[C@@H]3c3ccc(Cl)cc3)CC2)CCCCC1
Melanocortin receptor 4 [1]
  Ki: 1500 nM

## CC(C)N1C[C@H](C(=O)N2CCN(C3(CNS(=O)(=O)c4ccccc4)CCCCC3)CC2)[C@@H](c2ccc(Cl)cc2)C1
Melanocortin receptor 4 [1]
  Ki: 330 nM
Melanocortin receptor 4 [2]
  Intrinsic activity: 20%

## O=C([C@H]1CN(Cc2ccccc2)C[C@@H]1c1ccc(Cl)cc1)N1CCN(C2(CNCc3ccccc3)CCCCC2)CC1
Melanocortin receptor 4 [1]
  Ki: 140 nM
Melanocortin receptor 4 [2]
  Intrinsic activity: 1%

## CC(C)N1C[C@H](C(=O)N2CCN(C3(CN)CCCCC3)CC2)[C@@H](c2ccc(Cl)cc2)C1
Melanocortin receptor 4 [1]
  Ki: 1200 nM

## CCN(Cc1ccncc1)CC1(N2CCN(C(=O)[C@H]3CN(C(C)C)C[C@@H]3c3ccc(Cl)cc3)CC2)CCCCC1
Melanocortin receptor 4 [1]
  Ki: 1300 nM

## CC(C)C(=O)N1C[C@H](C(=O)N2CCN(C3(CNCc4ccccc4)CCCCC3)CC2)[C@@H](c2ccc(Cl)cc2)C1
Melanocortin receptor 4 [1]
  Ki: 210 nM
Melanocortin receptor 4 [2]
  Intrinsic activity: 47%

## CC(C)N1C[C@H](C(=O)N2CCN(C3(CNCc4ccccc4C(F)(F)F)CCCCC3)CC2)[C@@H](c2ccc(Cl)cc2)C1
Melanocortin receptor 4 [1]
  Ki: 140 nM

## O=C(C1CCCC1)N1C[C@H](C(=O)N2CCN(C3(CNCc4ccccc4)CCCCC3)CC2)[C@@H](c2ccc(Cl)cc2)C1
Melanocortin receptor 4 [1]
  Ki: 180 nM
Melanocortin receptor 4 [2]
  Intrinsic activity: 26%

## CC(C)N1C[C@H](C(=O)N2CCN(C3(CNS(=O)(=O)Cc4ccccc4)CCCCC3)CC2)[C@@H](c2ccc(Cl)cc2)C1
Melanocortin receptor 4 [1]
  Ki: 340 nM
Melanocortin receptor 4 [2]
  Intrinsic activity: 40%

## CCC(=O)N1C[C@H](C(=O)N2CCN(C3(CNCc4ccccc4)CCCCC3)CC2)[C@@H](c2ccc(Cl)cc2)C1
Melanocortin receptor 4 [1]
  Ki: 210 nM
Melanocortin receptor 4 [2]
  Intrinsic activity: 19%

## CC(C)N1C[C@H](C(=O)N2CCN(C3(CNCc4nccn4C)CCCCC3)CC2)[C@@H](c2ccc(Cl)cc2)C1
Melanocortin receptor 4 [1]
  Ki: 390 nM
Melanocortin receptor 4 [2]
  Intrinsic activity: 31%

## CC(=O)N1C[C@H](C(=O)N2CCN(C3(CNCc4ccccc4)CCCCC3)CC2)[C@@H](c2ccc(Cl)cc2)C1
Melanocortin receptor 4 [1]
  Ki: 190 nM
Melanocortin receptor 4 [2]
  Intrinsic activity: 13%

## CC(C)CN(Cc1ccncc1)CC1(N2CCN(C(=O)[C@H]3CN(C(C)C)C[C@@H]3c3ccc(Cl)cc3)CC2)CCCCC1
Melanocortin receptor 4 [1]
  Ki: 2700 nM

## CC(C)N1C[C@H](C(=O)N2CCN(C3(CNCc4cc5ccccc5n4C)CCCCC3)CC2)[C@@H](c2ccc(Cl)cc2)C1
Melanocortin receptor 4 [1]
  Ki: 1200 nM

## CNCC(=O)N1C[C@H](C(=O)N2CCN(C3(CNCc4ccccc4)CCCCC3)CC2)[C@@H](c2ccc(Cl)cc2)C1
Melanocortin receptor 4 [1]
  Ki: 100 nM
Melanocortin receptor 4 [2]
  Intrinsic activity: 8%

## O=C([C@H]1CN(Cc2ccccc2)C[C@@H]1c1ccc(Cl)cc1)N1CCN(C2(CNCc3ccncc3)CCCCC2)CC1
Melanocortin receptor 4 [1]
  Ki: 200 nM

## CC(C)N1C[C@H](C(=O)N2CCN(C3(CN(C)Cc4ccncc4)CCCCC3)CC2)[C@@H](c2ccc(Cl)cc2)C1
Melanocortin receptor 4 [1]
  Ki: 750 nM

## CC(C)N1C[C@H](C(=O)N2CCN(C3(CNCc4ccc(C(F)(F)F)cc4)CCCCC3)CC2)[C@@H](c2ccc(Cl)cc2)C1
Melanocortin receptor 4 [1]
  Ki: 130 nM
Melanocortin receptor 4 [2]
  Intrinsic activity: 16%

## CC(C)N1C[C@H](C(=O)N2CCN(C3(CNCc4ccc5c(c4)OCO5)CCCCC3)CC2)[C@@H](c2ccc(Cl)cc2)C1
Melanocortin receptor 4 [1]
  Ki: 8.3 nM
Melanocortin receptor 4 [2]
  Intrinsic activity: 7%

## CCNC(=O)N1C[C@H](C(=O)N2CCN(C3(CNCc4ccncc4)CCCCC3)CC2)[C@@H](c2ccc(Cl)cc2)C1
Melanocortin receptor 4 [1]
  Ki: 4600 nM

## CS(=O)(=O)N1C[C@H](C(=O)N2CCN(C3(CNCc4ccncc4)CCCCC3)CC2)[C@@H](c2ccc(Cl)cc2)C1
Melanocortin receptor 4 [1]
  Ki: 3400 nM

## COc1ccc(CN(Cc2ccc(OC)cc2)CC2(N3CCN(C(=O)[C@H]4CN(C(C)C)C[C@@H]4c4ccc(Cl)cc4)CC3)CCCCC2)cc1
Melanocortin receptor 4 [1]
  Ki: 2800 nM

## COCC(C)NCC1(N2CCN(C(=O)[C@H]3CN(C(C)C)C[C@@H]3c3ccc(Cl)cc3)CC2)CCCCC1 (stereo not given in full)
Melanocortin receptor 4 [1]
  Ki: 310 nM

## CSc1ccc(CNCC2(N3CCN(C(=O)[C@H]4CN(C(C)C)C[C@@H]4c4ccc(Cl)cc4)CC3)CCCCC2)cc1
Melanocortin receptor 4 [1]
  Ki: 27 nM

## CC(C)C(N)C(=O)N1C[C@H](C(=O)N2CCN(C3(CNCc4ccccc4)CCCCC3)CC2)[C@@H](c2ccc(Cl)cc2)C1 (stereo not given in full)
Melanocortin receptor 4 [1]
  Ki: 670 nM
Melanocortin receptor 4 [2]
  Intrinsic activity: 0%
